For assay [1], the target named is unphosphorylated c-KIT kinase (uKIT, Seq. ID no. 2) (Homo sapiens (Human), UniProt P10721). Briefly: uKit kinase assay (coupled pyruvate kinase/lactate dehydrogenase). The assay is classed as biochemical. The settings on record: enzymatic assay, ATP 2000 μM. As for the experimental part: uKit Kinase (Seq. ID No. 2) Assay
Activity of unphosphorylated c-KIT kinase (uKIT, Seq. ID no. 2) was determined by following the production of ADP from the KIT kinase reaction with ATP and poly E4Y as substrates through coupling with the pyruvate kinase/lactate dehydrogenase system (e.g., Schindler et al. Science (2000) 289: 1938-1942). In this assay, the oxidation of NADH (thus the decrease at A340 nm) was continuously monitored spectrophometrically. The reaction mixture (100 μl) contained unphosphorylated KIT (12 nM), polyE4Y (1 mg/mL), MgCl2 (10 mM), pyruvate kinase (4 units), lactate dehydrogenase (0.7 units), phosphoenol pyruvate (1 mM), and NADH (0.28 mM) and ATP (2000 μM) in 90 mM Tris buffer containing 0.2% octyl-glucoside and 1% DMSO, pH 7.5. The inhibition reaction was started by mixing serial diluted test compound with the above reaction mixture. The absorption at 340 nm was monitored continuously for 4 hours at 30° C. on Synergy 2 plate reader (BioTech). Reaction rates around 3 to 4 h time frame were used to calculate % inhibitions, from which IC50 values were generated.
uKit with N-Terminal GST Fusion Used for Screening (Seq ID No. 2)

In assay [2] the target is unphosphorylated c-FMS kinase (uFMS, Seq. ID no. 1) (Homo sapiens (Human), UniProt P07333). As to the kind of experiment: uFMS kinase assay (ADP production coupled to pyruvate kinase/lactate dehydrogenase). It counts as biochemical. To be noted: enzymatic assay, ATP 500 μM; read-out: uFMS. The procedure: uFMS kinase (Seq. ID No. 1) Assay
In this assay, the oxidation of NADH (thus the decrease at A340 nm) was continuously monitored spectrophometrically. The reaction mixture (100 μL) contained FMS (purchased from Millipore) (10 nM), polyE4Y (1 mg/mL), MgCl2 (10 mM), pyruvate kinase (4 units), lactate dehydrogenase (0.7 units), phosphoenol pyruvate (1 mM), NADH (0.28 mM) and ATP (500 μM) in 90 mM Tris buffer containing 0.2% octyl-glucoside and 1% DMSO, pH 7.5. The inhibition reaction was started by mixing serial diluted test compound with the above reaction mixture. The absorption at 340 nm was monitored continuously for 4 hours at 30° C. on Synergy 2 plate reader. The reaction rate was calculated using the 3 to 4 h time frame. Percent inhibition was obtained by comparison of reaction rate with that of a control (i.e., in the absence of test compound). IC50 values were calculated from a series of percent inhibition values determined at a range of inhibitor concentrations using software routines as implemented in the GraphPad Prism software package.
uFMS Kinase Sequence (Y538-End) Used for Screening (Seq. ID No. 1)

The subject of a further assay is osteoclast precursors. As to the kind of experiment: Osteoclast tartrate-resistant acid phosphatase assay. It counts as cell-based. The settings on record: Osteoclast, 7-14 days, RANKL and M-CSF. The procedure: Osteoclast Tartrate-Resistant Acid Phosphatase Assay
A serial dilution of test compound was dispensed into a 384-well black clear bottom plate (Nalge Nunc International, Rochester, N.Y.). Compound was diluted by the addition of DMEM media supplemented with 10% characterized fetal bovine serum (Invitrogen, Carlsbad, Calif.). Diluted compound was transferred to a 384-well black clear bottom plate. Two-thousand five hundred osteoclast precursors (Lonza, Walkersville, Md.) were added per well in growth media containing Receptor Activator of Nuclear Factor Kappa-beta ligand (RANKL) and M-CSF (R&D Systems, Minneapolis, Minn.). Plates were incubated for 7-14 days at 37 degrees Celsius, 5% CO2, and 95% humidity to allow differentiation of osteoclast precursors. At the end of the incubation period, 10 μL of supernatant from each well was transferred to a clear 384-well plate. Tartrate-resistant acid phosphatase activity in the supernatant samples was determined using an acid phosphatase assay kit (Sigma, St. Louis, Mo.). Absorbance was measured at 550 nm using a plate reader. Data was analyzed using Prism software (Graphpad, San Diego, Calif.) to calculate IC50 values.

The subject of a further assay is M-NFS-60 cells. Briefly: M-NFS-60 cell proliferation assay (resazurin). It counts as cell-based. The settings on record: 67 h incubation. The procedure: M-NFS-60 cells (catalog #CRL-1838) were obtained from the American Type Culture Collection (ATCC, Manassas, Va.). Briefly, cells were grown in suspension in RPMI 1640 medium supplemented with 10% characterized fetal bovine serum (Invitrogen, Carlsbad, Calif.), 0.05 mM 2-mercaptoethanol, and 20 ng/mL mouse recombinant macrophage colony stimulating factor (M-CSF) at 37° C., 5% CO2, and 95% humidity. Cells were allowed to expand until reaching saturation at which point they were subcultured or harvested for assay use.
M-NFS-60 Cell Proliferation Assay
A serial dilution of test compound was dispensed into a 384-well black clear bottom plate (Corning, Corning, N.Y.). Two thousand five hundred cells were added per well in 50 μL complete growth medium. Plates were incubated for 67 h at 37° C., 5% CO2, and 95% humidity. At the end of the incubation period 10 μL of a 440 μM solution of resazurin (Sigma, St. Louis, Mo.) in PBS was added to each well and incubated for an additional 5 h at 37° C., 5% CO2, and 95% humidity. Plates were read on a Synergy2 reader (Biotek, Winooski, Vt.) using an excitation of 540 nm and an emission of 600 nm. IC50 values were calculated from a series of percent inhibition values determined at a range of inhibitor concentrations using software routines as implemented in the GraphPad Prism software package.
For orientation: The colour change of resazurin is a common sign of viable cells or microbes.

A value given as a limit tells only on which side of the number the result lay.

Sequence of unphosphorylated c-KIT kinase (uKIT, Seq. ID no. 2) (P10721 other isoform, or with tags, fused parts or gaps): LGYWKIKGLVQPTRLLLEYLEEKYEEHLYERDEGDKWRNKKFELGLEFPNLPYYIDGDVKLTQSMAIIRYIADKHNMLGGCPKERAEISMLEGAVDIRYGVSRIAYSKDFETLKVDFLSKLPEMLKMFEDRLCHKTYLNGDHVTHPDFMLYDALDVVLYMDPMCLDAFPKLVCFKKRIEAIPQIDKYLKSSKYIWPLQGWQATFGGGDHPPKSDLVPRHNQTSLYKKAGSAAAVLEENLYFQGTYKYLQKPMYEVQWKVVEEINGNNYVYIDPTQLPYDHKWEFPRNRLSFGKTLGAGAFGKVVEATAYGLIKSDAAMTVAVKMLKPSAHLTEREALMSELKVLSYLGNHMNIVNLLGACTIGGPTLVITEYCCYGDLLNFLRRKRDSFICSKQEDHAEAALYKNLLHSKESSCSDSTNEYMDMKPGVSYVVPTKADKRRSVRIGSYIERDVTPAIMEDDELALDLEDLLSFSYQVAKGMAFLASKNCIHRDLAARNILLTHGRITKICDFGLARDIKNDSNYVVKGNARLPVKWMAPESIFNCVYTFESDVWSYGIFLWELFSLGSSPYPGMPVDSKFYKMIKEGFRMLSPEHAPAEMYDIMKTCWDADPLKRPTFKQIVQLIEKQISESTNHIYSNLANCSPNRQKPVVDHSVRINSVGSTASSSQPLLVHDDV
Sequence of unphosphorylated c-FMS kinase (uFMS, Seq. ID no. 1) (P07333 538-972): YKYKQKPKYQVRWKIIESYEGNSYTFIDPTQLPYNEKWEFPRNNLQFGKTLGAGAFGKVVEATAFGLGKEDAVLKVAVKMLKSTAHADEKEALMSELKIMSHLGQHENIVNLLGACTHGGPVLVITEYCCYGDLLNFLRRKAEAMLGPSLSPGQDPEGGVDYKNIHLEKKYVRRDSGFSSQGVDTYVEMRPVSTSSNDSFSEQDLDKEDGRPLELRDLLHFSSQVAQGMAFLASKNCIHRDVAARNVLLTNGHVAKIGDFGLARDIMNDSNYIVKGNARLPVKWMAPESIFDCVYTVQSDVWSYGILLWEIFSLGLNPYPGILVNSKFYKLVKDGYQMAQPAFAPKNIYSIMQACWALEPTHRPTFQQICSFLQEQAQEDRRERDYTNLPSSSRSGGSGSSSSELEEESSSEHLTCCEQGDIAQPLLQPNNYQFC

Take `CCc1nc(NC(=O)N2CCN(C3CCOCC3)C2=O)ccc1Oc1ccnc(-c2ccnc(C)c2)c1` [Example 64, N-(6-ethyl-5-((2′-methyl-[2,4′-bipyridin]-4-yl)oxy)pyridin-2-yl)-2-oxo-3-(tetrahydro-2H-pyran-4-yl)imidazolidine-1-carboxamide]: the IC50 in assay [1] is above 1000 nM; in assay [2], 100 to 1000 nM; with osteoclast precursors, above 1000 nM; with M-NFS-60 cells it was above 1000 nM.

For the molecule `Cc1ncc(-c2cc(Oc3ccc(NC(=O)N4CCN(C5CC5)C4=O)nc3C)ccn2)s1` [Example 65, 3-cyclopropyl-N-(6-methyl-5-((2-(2-methylthiazol-5-yl)pyridin-4-yl)oxy)pyridin-2-yl)-2-oxoimidazolidine-1-carboxamide], the IC50 fell in the range of 100 to 1000 nM in assay [1], 10 to 100 nM in assay [2], 10 to 100 nM with osteoclast precursors and 100 to 1000 nM with M-NFS-60 cells.

With `Cc1ncc(-c2cc(Oc3ccc(NC(=O)N4CCN(C5CCOCC5)C4=O)nc3C)ccn2)s1` [Example 66, N-(6-methyl-5-((2-(2-methylthiazol-5-yl)pyridin-4-yl)oxy)pyridin-2-yl)-2-oxo-3-(tetrahydro-2H-pyran-4-yl)imidazolidine-1-carboxamide], the IC50 in assay [1] was in the range of 100 to 1000 nM; in assay [2], 10 to 100 nM; in the assay on osteoclast precursors, 100 to 1000 nM; in the assay on M-NFS-60 cells, 100 to 1000 nM.

Take `COCCN1CCN(C(=O)Nc2ccc(Oc3ccnc(-c4cnc(C)s4)c3)c(C)n2)C1=O` [Example 67, 3-(2-methoxyethyl)-N-(6-methyl-5-((2-(2-methylthiazol-5-yl)pyridin-4-yl)oxy)pyridin-2-yl)-2-oxoimidazolidine-1-carboxamide]: the IC50 in assay [1] was above 1000 nM; in assay [2] it was 100 to 1000 nM; in the assay with osteoclast precursors, 100 to 1000 nM; in the assay with M-NFS-60 cells, 100 to 1000 nM.

For `Cc1ncc(-c2cc(Oc3ccc(NC(=O)N4CCN(C)C4=O)nc3C)ccn2)s1` [Example 73, 3-methyl-N-(6-methyl-5-((2-(2-methylthiazol-5-yl)pyridin-4-yl)oxy)pyridin-2-yl)-2-oxoimidazolidine-1-carboxamide], the IC50 in assay [1] is above 1000 nM; in assay [2], 100 to 1000 nM; with osteoclast precursors, 100 to 1000 nM; in the assay on M-NFS-60 cells it was above 1000 nM.

As to `Cc1ncc(-c2cc(Oc3ccc(NC(=O)N4CCN(CC(F)(F)F)C4=O)nc3C)ccn2)s1` [Example 74, N-(6-methyl-5-((2-(2-methylthiazol-5-yl)pyridin-4-yl)oxy)pyridin-2-yl)-2-oxo-3-(2,2,2-trifluoroethyl)imidazolidine-1-carboxamide], the IC50 in assay [1] was in the range of 100 to 1000 nM; in assay [2] it was 10 to 100 nM; in the assay with osteoclast precursors it was 10 to 100 nM; with M-NFS-60 cells, 100 to 1000 nM.

Consider `Cc1ncc(-c2cc(Oc3ccc(NC(=O)N4CCN(C5CCCC5)C4=O)nc3C)ccn2)s1` [Example 75, 3-cyclopentyl-N-(6-methyl-5-((2-(2-methylthiazol-5-yl)pyridin-4-yl)oxy)pyridin-2-yl)-2-oxoimidazolidine-1-carboxamide], for which the IC50 was 100 to 1000 nM in assay [1], below 10 nM in assay [2], 10 to 100 nM with osteoclast precursors and 10 to 100 nM in the assay on M-NFS-60 cells.

For the molecule `Cc1cn(-c2cc(Oc3ccc(NC(=O)N4CCN(CC(F)(F)F)C4=O)nc3)ccn2)cn1` [Example 76, N-(5-((2-(4-methyl-1H-imidazol-1-yl)pyridin-4-yl)oxy)pyridin-2-yl)-2-oxo-3-(2,2,2-trifluoroethyl)imidazolidine-1-carboxamide], the IC50 in assay [1] was 100 to 1000 nM; in assay [2], 10 to 100 nM; in the assay on osteoclast precursors, 100 to 1000 nM; in the assay on M-NFS-60 cells it was 100 to 1000 nM.

`Cc1cn(-c2cc(Oc3ccc(NC(=O)N4CCN(C5CCOCC5)C4=O)nc3)ccn2)cn1` [Example 77, N-(5-((2-(4-methyl-11H-imidazol-1-yl)pyridin-4-yl)oxy)pyridin-2-yl)-2-oxo-3-(tetrahydro-2H-pyran-4-yl)imidazolidine-1-carboxamide]: the IC50 in assay [1] lay in the range of 10 to 100 nM; in assay [2], 10 to 100 nM; in the assay on osteoclast precursors, 100 to 1000 nM; with M-NFS-60 cells, 100 to 1000 nM.

As for `CCc1nc(NC(=O)N2CCN(C3CCCC3)C2=O)ccc1Oc1ccnc(-c2cnc(C)s2)c1` [Example 78, 3-cyclopentyl-N-(6-ethyl-5-((2-(2-methylthiazol-5-yl)pyridin-4-yl)oxy)pyridin-2-yl)-2-oxoimidazolidine-1-carboxamide], the IC50 in assay [1] is above 1000 nM; in assay [2] it was 10 to 100 nM; in the assay with osteoclast precursors it was 100 to 1000 nM; with M-NFS-60 cells, above 1000 nM.

Take `CCN1CCN(C(=O)Nc2ccc(Oc3ccnc(-n4cnc(C)c4)c3)cn2)C1=O` [Example 79, 3-ethyl-N-(5-((2-(4-methyl-1H-imidazol-1-yl)pyridin-4-yl)oxy)pyridin-2-yl)-2-oxoimidazolidine-1-carboxamide]: the IC50 is 100 to 1000 nM in assay [1], 100 to 1000 nM in assay [2], 100 to 1000 nM in the assay with osteoclast precursors and above 1000 nM with M-NFS-60 cells.

In the case of `COCCN1CCN(C(=O)Nc2ccc(Oc3ccnc(-c4cn(C)cn4)c3)c(C)n2)C1=O` [Example 81, 3-(2-methoxyethyl)-N-(6-methyl-5-((2-(1-methyl-1H-imidazol-4-yl)pyridin-4-yl)oxy)pyridin-2-yl)-2-oxoimidazolidine-1-carboxamide], the IC50 in assay [1] is above 1000 nM; in assay [2] it was 10 to 100 nM; in the assay on osteoclast precursors it was 100 to 1000 nM; in the assay with M-NFS-60 cells, 100 to 1000 nM.

`CCN1CCN(C(=O)Nc2ccc(Oc3ccnc(-c4cn(C)cn4)c3)cn2)C1=O` [Example 82, 3-ethyl-N-(5-((2-(1-methyl-1H-imidazol-4-yl)pyridin-4-yl)oxy)pyridin-2-yl)-2-oxoimidazolidine-1-carboxamide]: the IC50 is below 10 nM in assay [1], 10 to 100 nM in assay [2], 10 to 100 nM in the assay on osteoclast precursors and 10 to 100 nM in the assay on M-NFS-60 cells.

With `Cc1cc(-c2cc(Oc3ccc(NC(=O)N4CCN(C5CCOCC5)C4=O)nc3C)ccn2)ccn1` [Example 87, N-(6-methyl-5-((2′-methyl-[2,4′-bipyridin]-4-yl)oxy)pyridin-2-yl)-2-oxo-3-(tetrahydro-2H-pyran-4-yl)imidazolidine-1-carboxamide], the IC50 in assay [1] is 10 to 100 nM; in assay [2], below 10 nM; in the assay with osteoclast precursors it was 10 to 100 nM; in the assay on M-NFS-60 cells, 10 to 100 nM.

For the origin of these results see patent publication US9133183B2, “Imidazolidinones and analogs exhibiting anti-cancer and anti-proliferative activities” (Deciphera Pharmaceuticals, LLC, priority 2013, dated 2015).
